This note sets out measurements from patent US20100226931A1, “Compounds for immunopotentiation” (priority 2004, published 2010).

A word on the melting point: it is the temperature, or range, at which the solid turns liquid.

With `Clc1ccc(Nc2nnc(Cc3ccncc3)c3ncccc23)cc1`, the melting point was 220 to 222 °C.
